Experimental data reported in patent publication US20070072251A1, “In vivo imaging using peptide derivatives” (CTT Cancer Targeting Technologies OY, priority 2003, published 2007).
Where a SMILES comes first, the peptide text is derived from it. Bridges are numbered along the chain shown (N, C = ends). Where no end group is shown, it is not given here. The star is where a group is joined. DTPA = O=C(O)CN(CCN(CC(=O)O)CC(=O)O)CCN(CC(=O)O)CC(=O)*

Assays:
[1] = system: human myelomonocytic leukemia U937 cell line; assay: Tumor targeting of radiolabelled LLG derivatives in mouse model of human myelomonocytic leukemia (gamma imaging, tissue counting); type: in vivo
Description: (§1) I-125 label, mouse model of human myelomonocytic leukemia. Planar gamma image. In these figures animals have been injected with radiolabelled peptide and anesthesized animals have been imaged under gamma camera (pinhole collimator, Picker SX-300 gamma camera).
(§2) The radiolabelled peptide derivatives were imaged at different time points using gamma camera in order to study tumor uptake in vivo as a function of time. After last imaging, tumor tissue were extirpated and counted for radioactivity. Detailed microdistribution was studied using quantitative autoradiography.
(§3) The peptide was labelled using In-111 label and direct iodination, as well as cDTPA.
(§4) The peptide was labelled using In-111 label and direct iodination and cDTPA. […] In this model absolute tumor-to-blood ratio was 4.7 at 24 hrs.

[2] = Biodistribution of I-125 labelled LLG in mice; type: in vivo; conditions: 30 min and 180 min after tail vein injection
Description: LLG (YADGACPCFLLGCC) was labelled with I-125, and the purified peptide (40 μg; ˜500 kBq) was injected into the tail vein of mice in the volume of […]. At 30 min and 180 min after peptide injection, the mice were sacrificed and their blood and tissues were collected to measure the radioactivity. Results are expressed as percentage of injected dose per 1.0 g tissue (% D/g) (FIG. 11). All values are indicated as the mean±SD of 3 mice.

integrin I-domain = assay: BIACORE affinity of LLG to integrin; type: binding; conditions: 134 nM-134 μM; not detectable due to the small size of the peptide
Description: We examined the affinity of LLG to integrin using BIACORE. In this method, purified integrin I-domain was immobilized on the gold coated carboxymethylated dextran chip. The immobilization succeeded, and in various channels a RU between 2000-4000 was obtained. Various concentrations (3.3 nM-33 μM) of LLG-GST or GST were tested for their ability to bind to the I-domain. Reaction buffer was 10 mM HEPES (pH 7.4)-150 mM NaCl, with or without 1 mM MgCl2. […] Addition of detergent P20 0.05% could not diminish the background.
In another set of experiment, plain LLG peptide was used for affinity testing. The concentration of the tested peptide varied between 134 nM-134 μM. […] The BIACORE method is currently under development, and we intend to study the affinity again with a peptide coupled to a higher molecular weight, inert carrier molecule.

[3] = Tumor targeting of radiolabelled LLG derivatives in mouse model of human myelomonocytic leukemia (gamma imaging, tissue counting); type: in vivo; conditions: mouse, in vivo, total radioactivity; at 24 hrs, intravenous injection, U937 model; read-out: absolute tumor-to-blood ratio
Description: as §1, §2, §3, §4

E. coli abscess = assay: LLG targeting to E. coli abscess in rabbits (gamma camera imaging, gamma-counter biodistribution); type: in vivo, New Zealand White rabbits
Description: (§5) In this experiment, the targeting of LLG to sites of inflammation was examined in Wistar rats and New Zealand White rabbits, by inducing an abscess with approximately 1×10^9 colony-forming units of Staphylococcus aureus or Escherichia coli injected into the left tight muscle. During the procedure, the animals were anesthetized. After 24 hours, when swelling of the muscle was apparent, the In-111 radiolabeled peptide CPCFLLGCC was injected i.v. and accumulation of the peptide was followed with gamma camera imaging. The peptide was tested using 3 animals in both animal species.
The animals were followed-up for 4 hours. In late images urinary excretion disturbed the imaging, but signal-to-background ratio remained high. No other targets than abscess could be detected. Imaging would have been even more successful, if the rabbits would have been catheterized (or bladder emptied) before imaging session.
(§6) After the imaging period, animals were sacrificed, various tissues were collected and the accumulated radioactivity was measured using a gamma-counter. In FIG. 7A, the amount of accumulated peptide (expressed as percentage of injected dose/weight of the tissue measured; % ID/g) is shown for certain tissues of rabbits (mean of 3 animals). […] In these animals, the corresponding ratios were 4.5 and 2.0 for muscle and blood, respectively.

S. aureus abscess = assay: LLG targeting to S. aureus abscess in rats (gamma camera imaging, gamma-counter biodistribution); type: in vivo, Wistar rats
Description: as §5
In rats assay, animals were followed-up for 2 hours after peptide injection. […] However, signal-to-background ratio remained high, and as in rabbits, no other targets than abscess could be detected.
as §6

[4] = system: accumulation of cells in peritoneal cavity; assay: Inhibition of leukocyte migration into thioglycolate inflamed peritoneal cavity; type: in vivo, Balb/c mice; conditions: 1 mg/kg iv
Description: To induce inflammation, female Balb/c mice were injected intraperitoneally with 1 ml of 3% Thioglycolate Broth (TG), three animals/group. Mice in the control group were injected iv with plain vehicle PBS-10% DMSO, and mice in the peptide group were injected iv with 1 mg/kg YADGACPCFLLGCC in PBS-10% DMSO. After 60 or 120 minutes, the mice were sacrificed. Cells in peritoneal cavity were collected by lavage with 5 ml PBS-5 mM EDTA, and counted with a hemocytometer.
In this experiment different cell populations were not distinguished. However, once again, YADGACPCFLLGCC reduced the accumulation of cells in experimental inflammation in vivo by 78% after 60 minutes and 52% after 120 minutes (FIG. 9).

THP-1 cell line = assay: Blocking of LLG-GFP binding to THP-1 cell line; type: cell-based
Description: What has been observed is that at 50 μM YLLG concentration 95% of LLG-GFPs binding is been blocked. When concentrations are been lowered to 20 μM still 70% inhibition occurs. […] However, due to the unspecific binding of peptide to the plastic walls of the container and the relative high concentrations of LLG-GFP needed for signal nanomolar scale, experiments can not been performed with this setup on its current already un-optimized state.

[5] = % ID/g, mean of 3 animals, after imaging period

I-125-YADGA LLG peptide: YADGACPCFLLGCC labelled with I-125 by direct iodination (cysteine pairing not given here; also: I-125 label by direct iodination)
tumor targeting (planar gamma image) ([1]; at 24 hrs after intravenous injection, FIGS. 2-3): tumor targeting
clearance [2]: rapid clearance through kidneys
tissue accumulation ([2]; 40 μg): did not accumulate in any tissue

CPCFLLGCC [nonapeptide with two disulfide bridges, ligand to leukocyte β2 integrins]
specific binding to immobilized integrin I-domain (integrin I-domain): no specific binding could be detected

CC(C)C[C@@H]1NC(=O)[C@H](CC(C)C)NC(=O)[C@H](Cc2ccccc2)NC(=O)[C@@H]2CSSC[C@@H](C(=O)O)NC(=O)[C@H](CSSC[C@H](NC(=O)[C@H](C)NC(=O)CNC(=O)[C@H](CC(=O)O)NC(=O)[C@H](C)NC(=O)[C@H](Cc3ccc(O)cc3)NC(=O)CN(CCN(CCN(CC(=O)O)CC(=O)O)CC(=O)O)CC(=O)O)C(=O)N3CCC[C@H]3C(=O)N2)NC(=O)CNC1=O [In-111-YADGA LLG, metal not drawn] ({DTPA}-YADGACPCFLLGCC-OH; disulfide 6-13, 8-14 (inferred); N-terminus and C-terminus assumed)
tissue to tissue ratio at 24 h [3]: 4.7
tumor targeting (gamma image) ([1]; at 3 hrs after intravenous injection, FIG. 1): clearly tumor targeting

In-111 radiolabeled peptide CPCFLLGCC: In-111 radiolabeled peptide CPCFLLGCC, cDTPA chelation (cysteine pairing not given here; also: In-111 radiolabel, cDTPA chelation)
signal-to-background ratio in late images (E. coli abscess): remained high
accumulation in abscess compared to blood (E. coli abscess; [5]): 2.3 fold
accumulation in abscess compared to muscle (E. coli abscess; [5]): 21.7 fold
abscess targeting in gamma camera imaging (E. coli abscess; E. coli abscess in thigh muscle, i.v., followed 4 hours): specific targeting into tight muscle, which was clearly visible within one hour
clearance (E. coli abscess; i.v.): rapid clearance through kidneys
signal-to-background ratio in late images (S. aureus abscess): remained high
abscess targeting in gamma camera imaging (S. aureus abscess; S. aureus abscess, followed 2 hours): specific targeting
accumulation ratio abscess to blood (S. aureus abscess; after imaging period): 2.0
accumulation ratio abscess to muscle (S. aureus abscess; after imaging period): 4.5

YADGACPCFLLGCC
reduction of accumulation of cells in experimental inflammation ([4]; after 60 minutes): 78%
reduction of accumulation of cells in experimental inflammation ([4]; after 120 minutes): 52%
inhibition of LLG-GFPs binding (THP-1 cell line; 20 μM YLLG): 70%
LLG-GFPs binding blocked (THP-1 cell line; 50 μM YLLG): 95%
IC 50 of blocking LLG-GFP binding (THP-1 cell line; judged from FIG. 12): on nanomolar scale
